The results in this text go back to patent publication US8680095B2, “Heterocycle compounds and uses thereof for the prevention or treatment of diseases involving formation of amyloid plaques and/or where a dysfunction of the APP metabolism occurs” (Institut National de la Sante et de la Recherche Medicale …, priority 2009, dated 2014).

Molecules are shown by their SMILES. Where two headings read alike, the source gives them in different places.

The subject of data set [1] is APP-CTFs (CTFα, AICD) in SKNSH-SY5Y APPwt cells. Kind of data set: Western blotting of APP carboxy-terminal fragments (CTFα, AICD) in treated cells. Format: cell-based. As to conditions: Homo sapiens, 24 h. As to the method:
(§1) The human neuroblastoma cell line SKNSH-SY5Y APP^wt is cultured in Dulbecco's modified Eagle medium (Invitrogen) supplemented with 10% fetal calf serum (PAA), 2 mM L-glutamine (Invitrogen), 1 mM non-essential amino acids (Invitrogen), 50 units/ml penicillin/streptomycin (Invitrogen) and 200 μg geneticin (G418; Invitrogen) (selection for cell expressing APP) in a 5% CO2 humidified incubator at 37° C. Cells are seeded into 96-wells plates (20000 cells/well) for cytotoxicity assay and 12-wells plate (300000 cells/well) for western blotting for 18 h.
(§2) For western blotting, cells are incubated with 700 μl/well of each product at 10; 3; 1 and 0.31 μM in a 5% CO2 incubator at 37° C. for 24 h. The following day, culture medium samples are collected for ELISA assay and stored at −80° C. Cells are rinsed very slowly with cold PBS, snap-frozen on dry ice and immediately stored at −80° C.
Cells in twelve-well plates are collected in 50 μl Laemmli Lysis Buffer (pH 6.8, 50 mM Tris Base, 2% SDS, 20% Glycerol, 1 mM sodium pyrophosphate, 1 mM sodium orthovanadate and Protease Inhibitor Cocktail Complete Mini-Roche) per well. Cells are scrapped and lysates sonicated for 5 min.
Protein content is determined using the BCA Method (Pierce). Samples containing equal amounts of protein (35 μg total protein for mice and 20 μg total protein for cells per well) are heated at 85° C. for 2 min after thawing and electrophoresed for 2.45 h at 125 V in a 16% Tricine precast gels according to the protocol supplied with the NuPAGE system (Invitrogen). After size fractionation, the proteins are transferred onto nitrocellulose 0.2 μm pore-size membranes (Invitrogen) in the blot module of the NuPAGE sytem for 1 h at room temperature (RT). Blots are blocked for 1 h in TNT with 0.05% Tween 20 and 5% nonfat milk at RT, incubated overnight at 4° C. with anti-C term APP C1:3-2429 (1:250000) primary antibody and washed four times with TNT before being exposed to peroxidase labeled anti-mouse IgG (H+L) C4 94010 (1:50000; Vector) secondary antibody for […] at 25° C. The immunoreactions are detected with SuperSignal West Pico Chemiluminescent Substrate (Thermo specific, 34077). Images are scanned with LAS-3000 Image System (Global FUJIFILM) and bands quantified by ImageJ 1.37v computer program. The different APP-CTF bands are detected as a function of their molecular mass, as described in Vingtdeux, V., Hamdane, M., Gompel, M. et al. (2005) Phosphorylation of amyloid precursor carboxy-terminal fragments enhances their processing by a gamma-secretase-dependent mechanism. Neurobiol Dis, 20, 625-637. Graphs and statistical analysis of results is performed with Graph Pad Prism (version 4.02) computer program.

In the next data set the test system is β-amyloid 1-42. Kind of data set: Innotest β-amyloid 1-42 ELISA on SY5Y culture medium. As to conditions: Homo sapiens, 24 h, compared to a control with a value of 100, read-out: Aβ 1 μM*. The class given is cell-based. As to the method: as §1, §2
The β-amyloid 1-42 rate is quantified in SY5Y cells-culture medium by using the Innotest β-amyloid 1-42 (80324 Innogenetics®) according to the manufacturer instructions. Briefly, Fresh culture medium is used to dilute the standard. Culture samples are centrifuged at 200 g at 4° C. during 5 minutes in order to eliminate cell fragments.
First, 75 μl of the conjugate working solution1 (3D6 biotinylated antibody) is added to a 21F12 Ab precoated well. Twenty five μl of pure supernatant samples are then added to the coated well, and incubated for 1 h. Then the plate is washed 5 times with the washing buffer. Then 100 μl of peroxidase-labeled streptavidin (conjugate working solution 2) is added and incubated for 30 min at RT. After washing the plate 5 times, 100 μl of tetramethyl benzidine (substrate working solution) is added onto the plate and incubated for 30 minutes in the dark. The reaction is stopped with 50 μl 0.9N sulfuric acid (stop solution). The absorbance is read at 450 nm.
A sigmoidal curve fitting (four parameter […] curve) is used to calculate the standard curve. The corresponding concentration of β-amyloid (1-42) in pg/ml is determined from the standard curve. Results are expressed in concentration of β-amyloid in pg per μg of total proteins. Graphs and statistic analyses (t Test) are performed with Graph Pad Prism computer program (V0.5).
On the technique in general: ELISA stands for enzyme-linked immunosorbent assay.

The nature of data set [2]: Cytotoxicity CC50 on MRC-5. The class given is cell-based. The following applies: human, MRC-5 cells.
The next data set deals with APP-CTFα. In words: In vivo mice treatment, western blotting of APP-CTFs in prefrontal cortex. As to conditions: C57Bl6 female mice, 12.5, 25, 50 mg/kg intraperitoneally once, prefrontal cortex 24 h after, versus vehicle. As to the method: Test molecules are intraperitoneally injected to 4 month old C57BI6 females mice either at 12.5; 25; 50 mg/kg or vehicule once, and sacrificed 24 h after by decapitation. Brain is immediately removed and Prefrontal Cortex is dissected by using a cold zinc brain matrix. The total dissection time was <3 min from decapitation. Following dissection tissue is frozen in dry ice and then stored at −80° C. for western blotting.
Protein extracts of Prefrontal Cortex samples are prepared in 50 μl Laemmli Lysis Buffer (pH 6.8, 50 mM Tris Base, 2% SDS, 20% Glycerol, 1 mM sodium pyrophosphate, 1 mM sodium orthovanadate and Protease Inhibitor Cocktail Complete Mini-Roche) by trituration of the fragments in a 0.2 ml glass micro tissue grinder. […]
Protein content is determined using the BCA Method (Pierce). […] The immunoreactions are detected with SuperSignal West Pico Chemiluminescent Substrate (Thermo specific, 34077). Images are scanned with LAS-3000 Image System (Global FUJIFILM) and bands quantified by ImageJ 1.37v computer program. The different APP-CTF bands are detected as a function of their molecular mass, as described in Vingtdeux, V., Hamdane, M., Gompel, M. et al. (2005) Phosphorylation of amyloid precursor carboxy-terminal fragments enhances their processing by a gamma-secretase-dependent mechanism. […]

The mark [3] stands for this setting: compared to a control with a value of 100, read-out: CTFα 1 μM*.
Where [4] appears, read: AICD, compared to a control with a value of 100, read-out: AlCD 1 μM*.

Consider `Cc1cc(Nc2ccnc3cc(Cl)ccc23)cc(CN2CCCC2)c1N1CCN(C)CC1` [compound 59, 7-Chloro-N-[3-methyl-4-(4-methylpiperazin-1-yl)-5-(pyrrolidin-1-ylmethyl)phenyl]quinolin-4-amine], for which the activity at 1 µM in data set [1] (setting [3]) was 629%; in data set [1] (setting [4]), 325%; in the data set with β-amyloid 1-42 it was 73%.

What is called CC50 is the concentration at which the toxic effect on the cells reaches its halfway point. `CCN(CC)Cc1cc(Nc2ccnc3cc(Cl)ccc23)ccc1F` [compound 84, 7-chloro-N-(3-((diethylamino)methyl)-4-fluorophenyl)quinolin-4-amine]: the activity at 1 µM in data set [1] (setting [3]) is 358%; in data set [1] (setting [4]), 209%. Also, in data set [2], the CC50 was less than 10 µM.

Regarding `CN1CCN(c2cc(Nc3ccnc4cc(Cl)ccc34)cc(N3CCN(C)CC3)c2)CC1` [compound 70, N-[3,5-bis(4-methylpiperazin-1-yl)phenyl]-7-chloroquinolin-4-amine], the activity at 1 µM in data set [1] (setting [3]) was determined as 687%; in data set [1] (setting [4]) it was 515%.

As for `N#Cc1cc(NCCN2CCCCC2)cc(Nc2ccnc3cc(Cl)ccc23)c1` [compound 77, 3-[(7-chloroquinolin-4-yl)amino]-5-{[2-(piperidin-1-yl)ethyl]amino}benzonitrile], the activity at 1 µM came out at 618% in data set [1] (setting [4]) and 85% with β-amyloid 1-42.

For `Oc1c(CN2CCCC2)cc(Nc2ccnc3cc(Cl)ccc23)cc1CN1CCCC1` [compound 66, 4-[(7-Chloroquinolin-4-yl)amino]-2,6-bis (pyrrolidin-1-ylmethyl)phenol], the activity at 1 µM is 754% in data set [1] (setting [3]), 886% in data set [1] (setting [4]) and 19% with β-amyloid 1-42. For the same compound, the “production of APP-CTFα (optical density, FIG. 1)” value in the data set with APP-CTFα is reported as “increases the production of APP-CTFα”.

For orientation: melting point means the temperature of the solid-liquid transition. In the case of `Clc1ccc2c(Nc3ccc(N4CCOCC4)c(CN4CCCC4)c3)ccnc2c1` [compound 86, 7-chloro-N-[4-(morpholin-4-yl)-3-(pyrrolidin-1-ylmethyl)phenyl]quinolin-4-amine], the melting point is 187 to 188 °C.

As to `CN(C)CCCN1CCN(C(=O)c2cc(Nc3ccnc4cc(Cl)ccc34)cc(C(=O)N3CCN(CCCN(C)C)CC3)c2)CC1` [compound 64, N-[3,5-Bis({4-[3-(dimethylamino)propyl]piperazin-1-yl}carbonyl)phenyl]-7-chloroquinolin-4-amine], the activity at 1 µM amounted to 106% in data set [1] (setting [3]), 669% in data set [1] (setting [4]) and 31% in the data set on β-amyloid 1-42.

For the compound `CN1CCN(c2cc(O)cc(Nc3ccnc4cc(Cl)ccc34)c2)CC1` [compound 72, 3-[(7-chloroquinolin-4-yl)amino]-5-(4-methyl-piperazin-1-yl)phenol], the activity at 1 µM in data set [1] (setting [3]) was determined as 105%; in data set [1] (setting [4]), 80%; in the data set with β-amyloid 1-42 it was 100%.

`N#Cc1cc(/N=c2\ccn(CCN3CCCCC3)c3cc(Cl)ccc23)cc(NCCN2CCCCC2)c1` [compound 76, 3-({7-Chloro-1-[2-(piperidin-1-yl)ethyl]-1,4-dihydroquinolin-4-ylidene}amino)-5-{[2-(piperidin-1-yl)ethyl]amino}benzonitrile]: the activity at 1 µM with β-amyloid 1-42 was determined as 76%.

Consider `COC(=O)c1cc(Nc2ccnc3cc(Cl)ccc23)cc(C(=O)N2CCN(CCCN(C)C)CC2)c1` [compound 69, Methyl 3-[(7-chloroquinolin-4-yl)amino]-5-({4-[3-(dimethylamino)propyl]piperazin-1-yl}carbonyl)benzoate], for which the activity at 1 µM is 126% in data set [1] (setting [3]), 302% in data set [1] (setting [4]) and 46% in the data set with β-amyloid 1-42.

For `CN1CCN(c2ccc(Nc3ccnc4cc(Cl)ccc34)cc2CNC(C)(C)C)CC1` [compound 56, N-{3-[(tert-butylamino)methyl]-4-(4-methylpiperazin-1-yl)phenyl}-7-chloroquinolin-4-amine], the values for the activity at 1 µM (in data set [1] (setting [3]); in data set [1] (setting [4]); in the data set with β-amyloid 1-42) were 183%, 823% and 45%, respectively.

Turning to `CN1CCN(c2ccc(Nc3ccnc4cc(Cl)ccc34)cc2CN2CCOCC2)CC1` [compound 57, 7-chloro-N-[4-(4-methylpiperazin-1-yl)-3-(morpholin-4-ylmethyl)phenyl]quinolin-4-amine], the results for the activity at 1 µM (in data set [1] (setting [3]); in data set [1] (setting [4]); in the data set on β-amyloid 1-42) were 194%, 757% and 19%, respectively.

With `N#Cc1cc(N)cc(Nc2cc[n+](CCN3CCCCC3)c3cc(Cl)ccc23)c1` [compound 74, 4-[(3-amino-5-cyanophenyl)amino]-7-chloro-1-[2-(piperidin-1-yl)ethyl]quinolin-1-ium chloride], the activity at 1 µM with β-amyloid 1-42 amounted to 44%.
